According to patent US10828269B2, “Reducing muscle atrophy by administering astaxanthin” (FUJI CHEMICAL INDUSTRIES CO., LTD., priority 2004, dated 2020):

Experiments:
[1] = relative to β-carotene; cited from earlier work
[2] = test system: granulin; experiment: GeneChip gene expression in renal glomerulus; type: in vivo, mouse; conditions: probe 1438629_x_at, 0.02% in diet, 12 weeks
Procedure: (§1) Type II diabetic female db/db mice and non-diabetic db/m were purchased from Clea Japan, Inc. Mice were bred under the conditions with a 12 hours light-dark cycle at a temperature of 21° C. to 25° C. For acclimation, mice were fed CE-2 (Clea Japan, Inc.) with free access to water for one week. The mice were divided into three groups each consisting of 8 mice (non-diabetic db/m, diabetic db/db, and astaxanthin-administered db/db) and each group was bred with feed ad libitum. Mice in astaxanthin-administered group were fed a diet in which 0.02% astaxanthin in terms of free astaxanthin was compounded with CE-2. Each group was bred for 12 weeks, and body weight, blood glucose levels, 8-OHdG levels in urine, albumin levels in urine, and kidney histopathology, were measured. Astaxanthin used here was AstaReal (registered trademark, Fuji Chemical Industry Co., Ltd.) 50F, which is oil composed of astaxanthin fatty acid ester and triglycerides and contains 5% astaxanthin in terms of free astaxanthin.
(§2) After the period of test breeding, kidney was removed and frozen at −80° C. Using an LM200 system (Olympus Corporation), the renal glomerulus was cut from kidney of mice while keeping low temperature. tRNA of renal glomerulus was extracted using tRNA extraction regent “Isogen” (produced by Nippon Gene Co., Ltd.), and then preparation of cRNA and hybridization were performed according to the Affymetrix GeneChip Eukaryotic Small Sample Target Labeling Assay Ver. II.
(§3) (1) Synthesis of first strand cDNA: 1 μL of total RNA solution and 1 of 5 μM T7-Oligo(dT) primer were mixed, heated at 70° C. for 6 minutes, and then cooled at 4° C. for 2 minutes. 3 μL of RT_Premix_1 (1.5 μL DEPC-treated water, 4 μL 5× First strand Buffer, 2 μL DTT (0.1 M), 1.5 μL dNTP Mix (10 mM), 1 μL RNase inhibitor (40 U/μL), and 2 μL Super-Script II (200 U/μL)) was added and reverse transcribed at 42° C. for 1 hour. The sample was heated at 70° C. for 10 minutes to inactivate Super Script II, and then cooled to 4° C. (2) Synthesis of second strand cDNA: 32.5 μl of SS_Premix_1 (91 μL DEPC-treated water, 30 μL 5× Second Strand Buffer, 3 μL dNTP (10 mM), 1 μL E. coli DNA ligase (10 U/μL); 4 μL E. coli DNA polymerase (10 U/μL), and 1 μL RNase H (2 U/μL)) was added to the first strand cDNA solution and allowed to react for 2 hours at 16° C. (3) To the resulting cDNA, was added 1 μL T4 DNA polymerase (5 U/μl) and allowed to react for 10 minutes at 16° C., and purified by ethanol precipitation. (4) In vitro transcription: To the dried double-stranded cDNA pellet, was added 10 μL of reagents (4 μL DEPC-treated water, 4 μL premixed NTPs, 1 μL 10× reaction buffer, and 1 μL 10× enzyme mix), and allowed to react at 37° C. in a water bath for 6 hours. (5) First cycle cRNA was purified using the RNeasy Mini Kit in accordance with the protocol in the handbook (QIAGEN). (6) Subsequently, for the amplification and labeling, the cRNA sample was mixed with random primers (0.2 μg/μL), treated at 70° C. for 10 minutes, cooled on ice for 2 minutes, 5 μL of RT_Premix_2 (5× First Strand Buffer, DTT (0.1 M), dNTP mix (10 mM), RNase inhibitor (40 U/μL), and SuperScript II (200 U/μL) was added, and allowed to react at 42° C. for 1 hour. (7) Next, Second Sstrand cDNA synthesis was carried out by adding 5 μM T7-Oligo(dT) promoter treating at 70° C. for 6 minutes, cooling at 4° C., and adding 62 μL of SS_Premix_2 (43 μL it DEPC-treated water, 15 μL 5× Second Strand Buffer, 1.5 μL dNTP mix (10 mM), and 2 μL E. coli DNA polymerase (10 U/μL)). (8) To the resulting cDNA, was treated added 1 μL of T4 DNA polymerase (5 U/μL), allowed to react at 16° C. for 10 minutes, and purified by ethanol precipitation. […]

[3] = test system: catalase; experiment: GeneChip gene expression in renal glomerulus; type: in vivo, mouse; conditions: probe 1416430_at, 0.02% in diet, 12 weeks
Procedure: as §1, §2, §3

[4] = test system: Blymphoma Mo-MLV insertion region 1; experiment: GeneChip gene expression in renal glomerulus; type: in vivo, mouse; conditions: probe 1448733_at, 0.02% in diet, 12 weeks
Procedure: as §1, §2, §3

[5] = test system: erythropoietin receptor; experiment: GeneChip gene expression in renal glomerulus; type: in vivo, mouse; conditions: probe 1423344_at, 0.02% in diet, 12 weeks
Procedure: as §1, §2, §3

[6] = test system: superoxide dismutase 1, soluble; experiment: GeneChip gene expression in renal glomerulus; type: in vivo, mouse; conditions: 0.02% in diet, 12 weeks
Procedure: as §1, §2, §3

[7] = test system: caspase 7; experiment: GeneChip gene expression in renal glomerulus; type: in vivo, mouse; conditions: probe 1434099_at, 0.02% in diet, 12 weeks
Procedure: as §1, §2, §3

[8] = test system: FK506 binding protein 1a; experiment: GeneChip gene expression in renal glomerulus; type: in vivo, mouse; conditions: probe 1448184_at (Table 4), 0.02% in diet, 12 weeks
Procedure: as §1, §2, §3

[9] = test system: transforming growth factor beta 1 induced transcript 4; experiment: GeneChip gene expression in renal glomerulus; type: in vivo, mouse; conditions: 0.02% in diet, 12 weeks
Procedure: as §1, §2, §3

[10] = test system: secreted posphoprotein 1; experiment: GeneChip gene expression in renal glomerulus; type: in vivo, mouse; conditions: probe 1449254_at, 0.02% in diet, 12 weeks
Procedure: as §1, §2, §3

[11] = test system: catenin beta; experiment: GeneChip gene expression in renal glomerulus; type: in vivo, mouse; conditions: probe 1420811_a_at, 0.02% in diet, 12 weeks
Procedure: as §1, §2, §3

## CC1=C(/C=C/C(C)=C/C=C/C(C)=C/C=C/C=C(C)/C=C/C=C(C)/C=C/C2=C(C)C(=O)C(O)CC2(C)C)C(C)(C)CC(O)C1=O (stereo not drawn) [astaxanthin, 3,3′-dihydroxy-β,β-carotene-4,4′-dione]
[1]
  antioxidant effect, times as strong as β-carotene: about 40 times
[2]
  gene expression relative ratio db/db(Ax):db/db: 0.19
  gene expression relative ratio db/db(Ax):db/m: 3.03
[3]
  gene expression relative ratio db/db(Ax):db/db: 0.33
  gene expression relative ratio db/db(Ax):db/m: 8.57
[4]
  gene expression relative ratio db/db(Ax):db/db: 0.76
  gene expression relative ratio db/db(Ax):db/m: 8.00
[5]
  gene expression relative ratio db/db(Ax):db/db: 2.30
  gene expression relative ratio db/db(Ax):db/m: 0.71
[6]
  gene expression relative ratio db/db(Ax):db/db: 0.23
[6]; probe 1448184_at (Table 5)
  gene expression relative ratio db/db(Ax):db/m: 4.00
[7]
  gene expression relative ratio db/db(Ax):db/db: 0.87
  gene expression relative ratio db/db(Ax):db/m: 68.59
[8]
  gene expression relative ratio db/db(Ax):db/db: 0.66
  gene expression relative ratio db/db(Ax):db/m: 6.50
[9]; probe 1425742_a_at
  gene expression relative ratio db/db(Ax):db/db: 0.33
  gene expression relative ratio db/db(Ax):db/m: 1.41
[9]; probe 1454971_x_at
  gene expression relative ratio db/db(Ax):db/db: 0.57
  gene expression relative ratio db/db(Ax):db/m: 3.25
[10]
  gene expression relative ratio db/db(Ax):db/db: 0.13
  gene expression relative ratio db/db(Ax):db/m: 0.66
[11]
  gene expression relative ratio db/db(Ax):db/db: 0.38
  gene expression relative ratio db/db(Ax):db/m: 12.13
